# According to patent US7507739B2, “6-[(substituted)phenyl]triazolopyrimidines as anticancer agents” (Wyeth, priority 2003, dated 2009):
# pIC50: −log10 of the molar value.
# How the values were obtained:
# HeLa cells = test: Cell cycle analysis with HeLa cells; format: cell-based, human; conditions: 18 hr
# Procedure: HeLa cells are harvested by trypsinization, washed, counted and distributed to wells of 12-well plates at 125,000 cells per well in 2 mL medium. Cells are cultured overnight. […] Cells are continued in culture for 18 hr after compound addition, then cells in each well are harvested (taking care to recover both adherent and non-adherent cells) and processed using the CycleTEST PLUS kit (Becton Dickinson Immunocytometry Systems, San Jose, Calif.). Flow cytometry is done with a FACSort instrument (Becton Dickinson).
# This procedure measures the percentages of cells in a population that are in the G1, S, and G2/M phases of the cell cycle. It utilizes staining of cell nuclei with propidium iodide and analysis by flow cytometry.
# pure tubulin = test: Tubulin polymerization test with pure tubulin without GTP; format: biochemical, bovine; conditions: no GTP
# Procedure: Medium is RPMI-1640 with L-glutamine, supplemented with 10% heat-inactivated fetal calf serum, 100 units/ml penicillin, and 100 μg/ml streptomycin (Gibco, Grand Island, N.Y.). Microtubule-associated protein (MAP)-rich tubulin, containing about 70% tubulin and 30% MAPs (#ML113), and highly purified tubulin (>99% pure, #TL238), both from bovine brain, are obtained from Cytoskeleton, Inc., Denver, Colo. PEM buffer (80 mM piperazine-N,N′-bis[2-ethanesulfonic acid], pH 6.9, 1 mM ethylene glycol-bis(β-aminoethyl ether)-N,N,N′,N′-tetraacetic acid, 1 mM magnesium chloride) and guanosine 5′-triphosphate (GTP) are also obtained from Cytoskeleton. [3H]paclitaxel, specific activity 14.7 Ci/mmol, is purchased from Moravek Biochemicals (Brea, Calif.). [^3H]vinblastine, specific activity 9.60 Ci/mmol and MicroSpin G-50 columns are obtained from Amersham Biosciences (Piscataway, N.J.). […] Other reagents are obtained from Sigma (St. Louis, Mo.).
# Two variations of this procedure are done, one using MAP-rich tubulin and one using pure tubulin.
# The procedure with pure tubulin is similar except for the following changes. […] The supernatant after centrifugation is dispensed to a 96-well plate already containing compounds. Each compound is tested in duplicate at six serial 3-fold dilutions starting at 24.3 μM. The plate reader is thermostated at 35°.
# COLO 205 cells = test: MTS cytotoxicity test with COLO 205 cells; format: cell-based, human; conditions: Homo sapiens, COLO 205, 72 h, 3 days
# Procedure: The assay, which is sold in kit form by Promega (Madison, Wis.; CellTiter 96 AQueous Non-Radioactive Cell Proliferation Assay), is based on the conversion by viable cells, but not by dead cells, of the tetrazolium salt, MTS (3-(4,5-dimethylthiazol-2-yl)-5-(3-carboxymethoxyphenyl)-2-(4-sulphophenyl)-2H-tetrazolium, inner salt), into a water-soluble colored formazan which is detected by spectrophotometry. Compounds are tested at nine concentrations, in order to determine IC50 values. For the test procedure, cells are harvested by trypsinization (or, in the case of non-adherent cells, by simple resuspension), washed, counted and distributed to wells of 96-well flat-bottom microtiter plates at 1000 cells per well in 200 μL of medium. In addition, one row of wells on a separate plate received cells as above (“time 0” plate). All plates are incubated at 37° in humidified 5% CO2 in air for about 24 hr.
# On day 2, compounds for test are diluted and added to wells. Compounds are dissolved in DMSO at 10 mg/mL. For each compound, nine serial 2-fold dilutions are prepared in DMSO. Ten μL of each dilution in DMSO is transferred to 100 μL of medium, mixed well, and then 5 μL of this dilution is transferred in quadruplicate to wells containing cells. The final high concentration of each compound is typically 5 μM. Plates are returned to the incubator for three days. At the time of drug addition to the experimental plates, the MTS assay is run on the “time 0” plate. This produced the “time 0 MTS value” which is related to the number of viable cells per well at the time of drug addition.
# After three days of culture with test compounds (day 5 overall), the MTS assay is done on all wells of the experimental plates. The absorbance values of the quadruplicate sample wells are averaged and divided by the average of the “time 0” values. The average of control wells without drug, divided by the average “time 0” value, gave the maximal relative increase in MTS color yield due to cell growth during the final three days of culture. The average of control wells with high drug concentration, divided by the “time 0” value, gave the minimal relative color yield for cells that are completely killed. The nine values for each compound are plotted against concentration, and the concentration that produced a relative color yield half way between the maximum and minimum is taken as the IC50 value.
# COLO 205 is a human colon carcinoma cell line that is used for comparative testing of the examples of this invention and several reference compounds. This line is sensitive to paclitaxel and vincristine.
smiles,measurement,setting,value
"COc1cc2c(c(OC)c1OC)-c1ccc(OC)c(=O)cc1[C@@H](NC(C)=O)CC2 [Colchicine, reference compound]",Percent in Cell Cycle Phase >4N,HeLa cells; 5 nM,2%
same,Percent in Cell Cycle Phase Apop,HeLa cells; 5 nM,6%
same,Percent in Cell Cycle Phase G1,HeLa cells; 5 nM,60%
same,Percent in Cell Cycle Phase G2/M,HeLa cells; 5 nM,16%
same,Percent in Cell Cycle Phase S,HeLa cells; 5 nM,17%
same,Percent in Cell Cycle Phase >4N,HeLa cells; 10 nM,2%
same,Percent in Cell Cycle Phase Apop,HeLa cells; 10 nM,7%
same,Percent in Cell Cycle Phase G1,HeLa cells; 10 nM,59%
same,Percent in Cell Cycle Phase S,HeLa cells; 10 nM,16%
same,Percent in Cell Cycle Phase >4N,HeLa cells; 15 nM,2%
same,Percent in Cell Cycle Phase Apop,HeLa cells; 15 nM,9%
same,Percent in Cell Cycle Phase G1,HeLa cells; 15 nM,50%
same,Percent in Cell Cycle Phase G2/M,HeLa cells; 15 nM,23%
same,Percent in Cell Cycle Phase S,HeLa cells; 15 nM,17%
same,Percent in Cell Cycle Phase >4N,HeLa cells; 17.5 nM,2%
same,Percent in Cell Cycle Phase Apop,HeLa cells; 17.5 nM,9%
same,Percent in Cell Cycle Phase G1,HeLa cells; 17.5 nM,51%
same,Percent in Cell Cycle Phase G2/M,HeLa cells; 17.5 nM,21%
same,Percent in Cell Cycle Phase >4N,HeLa cells; 20 nM,2%
same,Percent in Cell Cycle Phase Apop,HeLa cells; 20 nM,13%
same,Percent in Cell Cycle Phase G1,HeLa cells; 20 nM,40%
same,Percent in Cell Cycle Phase G2/M,HeLa cells; 20 nM,28%
same,Percent in Cell Cycle Phase >4N,HeLa cells; 25 nM,3%
same,Percent in Cell Cycle Phase Apop,HeLa cells; 25 nM,14%
same,Percent in Cell Cycle Phase G1,HeLa cells; 25 nM,36%
same,Percent in Cell Cycle Phase G2/M,HeLa cells; 25 nM,27%
same,Percent in Cell Cycle Phase S,HeLa cells; 25 nM,20%
same,Percent in Cell Cycle Phase >4N,HeLa cells; 30 nM,3%
same,Percent in Cell Cycle Phase Apop,HeLa cells; 30 nM,14%
same,Percent in Cell Cycle Phase G1,HeLa cells; 30 nM,27%
same,Percent in Cell Cycle Phase G2/M,HeLa cells; 30 nM,36%
same,Percent in Cell Cycle Phase S,HeLa cells; 30 nM,20%
same,Percent in Cell Cycle Phase >4N,HeLa cells; 40 nM,4%
same,Percent in Cell Cycle Phase Apop,HeLa cells; 40 nM,11%
same,Percent in Cell Cycle Phase G1,HeLa cells; 40 nM,16%
same,Percent in Cell Cycle Phase G2/M,HeLa cells; 40 nM,48%
same,Percent in Cell Cycle Phase S,HeLa cells; 40 nM,22%
same,Percent in Cell Cycle Phase >4N,HeLa cells; 50 nM,4%
same,Percent in Cell Cycle Phase Apop,HeLa cells; 50 nM,11%
same,Percent in Cell Cycle Phase G1,HeLa cells; 50 nM,11%
same,Percent in Cell Cycle Phase G2/M,HeLa cells; 50 nM,56%
same,Percent in Cell Cycle Phase >4N,HeLa cells; 100 nM,3%
same,Percent in Cell Cycle Phase Apop,HeLa cells; 100 nM,15%
same,Percent in Cell Cycle Phase G1,HeLa cells; 100 nM,11%
same,Percent in Cell Cycle Phase G2/M,HeLa cells; 100 nM,55%
same,Percent in Cell Cycle Phase S,HeLa cells; 100 nM,16%
"CC(=O)O[C@@]12CO[C@@H]1C[C@H](O)[C@@]1(C)C(=O)[C@H](O)C3=C(C)[C@@H](OC(=O)[C@H](O)[C@@H](NC(=O)OC(C)(C)C)c4ccccc4)C[C@@](O)([C@@H](OC(=O)c4ccccc4)[C@H]21)C3(C)C [Docetaxel, reference compound]",Percent in Cell Cycle Phase >4N,HeLa cells; 0.25 nM,2%
same,Percent in Cell Cycle Phase Apop,HeLa cells; 0.25 nM,8%
same,Percent in Cell Cycle Phase G1,HeLa cells; 0.25 nM,58%
same,Percent in Cell Cycle Phase G2/M,HeLa cells; 0.25 nM,16%
same,Percent in Cell Cycle Phase S,HeLa cells; 0.25 nM,17%
same,Percent in Cell Cycle Phase >4N,HeLa cells; 0.5 nM,2%
same,Percent in Cell Cycle Phase Apop,HeLa cells; 0.5 nM,19%
same,Percent in Cell Cycle Phase G1,HeLa cells; 0.5 nM,48%
same,Percent in Cell Cycle Phase G2/M,HeLa cells; 0.5 nM,14%
same,Percent in Cell Cycle Phase S,HeLa cells; 0.5 nM,18%
same,Percent in Cell Cycle Phase >4N,HeLa cells; 1 nM,2%
same,Percent in Cell Cycle Phase Apop,HeLa cells; 1 nM,35%
same,Percent in Cell Cycle Phase G1,HeLa cells; 1 nM,35%
same,Percent in Cell Cycle Phase G2/M,HeLa cells; 1 nM,14%
same,Percent in Cell Cycle Phase S,HeLa cells; 1 nM,15%
same,Percent in Cell Cycle Phase >4N,HeLa cells; 2 nM,2%
same,Percent in Cell Cycle Phase Apop,HeLa cells; 2 nM,48%
same,Percent in Cell Cycle Phase G1,HeLa cells; 2 nM,19%
same,Percent in Cell Cycle Phase G2/M,HeLa cells; 2 nM,14%
same,Percent in Cell Cycle Phase S,HeLa cells; 2 nM,18%
same,Percent in Cell Cycle Phase >4N,HeLa cells; 3 nM,2%
same,Percent in Cell Cycle Phase Apop,HeLa cells; 3 nM,52%
same,Percent in Cell Cycle Phase G1,HeLa cells; 3 nM,15%
same,Percent in Cell Cycle Phase G2/M,HeLa cells; 3 nM,14%
same,Percent in Cell Cycle Phase S,HeLa cells; 3 nM,17%
same,Percent in Cell Cycle Phase >4N,HeLa cells; 4 nM,2%
same,Percent in Cell Cycle Phase Apop,HeLa cells; 4 nM,49%
same,Percent in Cell Cycle Phase G1,HeLa cells; 4 nM,12%
same,Percent in Cell Cycle Phase G2/M,HeLa cells; 4 nM,22%
same,Percent in Cell Cycle Phase S,HeLa cells; 4 nM,16%
same,Percent in Cell Cycle Phase >4N,HeLa cells; 5 nM,3%
same,Percent in Cell Cycle Phase Apop,HeLa cells; 5 nM,42%
same,Percent in Cell Cycle Phase G1,HeLa cells; 5 nM,9%
same,Percent in Cell Cycle Phase G2/M,HeLa cells; 5 nM,31%
same,Percent in Cell Cycle Phase S,HeLa cells; 5 nM,17%
same,Percent in Cell Cycle Phase >4N,HeLa cells; 6 nM,4%
same,Percent in Cell Cycle Phase Apop,HeLa cells; 6 nM,37%
same,Percent in Cell Cycle Phase G1,HeLa cells; 6 nM,10%
same,Percent in Cell Cycle Phase G2/M,HeLa cells; 6 nM,33%
same,Percent in Cell Cycle Phase S,HeLa cells; 6 nM,17%
same,Percent in Cell Cycle Phase >4N,HeLa cells; 8 nM,4%
same,Percent in Cell Cycle Phase Apop,HeLa cells; 8 nM,29%
same,Percent in Cell Cycle Phase G1,HeLa cells; 8 nM,7%
same,Percent in Cell Cycle Phase G2/M,HeLa cells; 8 nM,48%
same,Percent in Cell Cycle Phase S,HeLa cells; 8 nM,11%
same,Percent in Cell Cycle Phase >4N,HeLa cells; 10 nM,4%
same,Percent in Cell Cycle Phase Apop,HeLa cells; 10 nM,35%
same,Percent in Cell Cycle Phase G1,HeLa cells; 10 nM,9%
same,Percent in Cell Cycle Phase G2/M,HeLa cells; 10 nM,37%
same,Percent in Cell Cycle Phase S,HeLa cells; 10 nM,16%
same,Percent in Cell Cycle Phase >4N,HeLa cells; 20 nM,3%
same,Percent in Cell Cycle Phase Apop,HeLa cells; 20 nM,38%
same,Percent in Cell Cycle Phase G1,HeLa cells; 20 nM,8%
same,Percent in Cell Cycle Phase G2/M,HeLa cells; 20 nM,40%
same,Percent in Cell Cycle Phase S,HeLa cells; 20 nM,12%
same,"absorbance increase, polymerization of pure tubulin",pure tubulin; 0.1 μM,small increase in absorbance
same,A340 at 0 min,pure tubulin; 24.3 μM,0
same,A340 at 5 min,pure tubulin; 24.3 μM,0.20
same,A340 at 10 min,pure tubulin; 24.3 μM,0.20
same,A340 at 15 min,pure tubulin; 24.3 μM,0.20
same,A340 at 20 min,pure tubulin; 24.3 μM,0.20
same,"absorbance increase, polymerization of pure tubulin","pure tubulin; 24.3 μM, first 5 min",rapid increase in absorbance
"C[C@H](Nc1c(-c2c(F)cc(OCCCN)cc2F)c(Cl)nc2ncnn12)C(F)(F)F [Example 5, 6-[4-(3-Aminopropoxy)-2,6-difluorophenyl]-5-chloro-N-[(1S)-2,2,2-trifluoro-1-methylethyl][1,2,4]triazolo[1,5-a]pyrimidin-7-amine]",pIC50,COLO 205 cells,6.34
"C[C@H](Nc1c(-c2c(F)cc(OCCCN3CCOCC3)cc2F)c(Cl)nc2ncnn12)C(F)(F)F [Example 11, 5-Chloro-6-[2,6-difluoro-4-(3-morpholin-4-ylpropoxy)phenyl]-N-[(1S)-2,2,2-trifluoro-1-methylethyl][1,2,4]triazolo[1,5-a]pyrimidin-7-amine]",pIC50,COLO 205 cells,7.05
"C[C@H](Nc1c(-c2c(F)cc(OCCO)cc2F)c(Cl)nc2ncnn12)C(F)(F)F [Example 19, 2-[4-(5-Chloro-7-{[(1S)-2,2,2-trifluoro-1-methylethyl]amino}[1,2,4]triazolo[1,5-a]pyrimidin-6-yl)-3,5-difluorophenoxy]ethanol]",pIC50,COLO 205 cells,6.37
"C[C@H](Nc1c(-c2c(F)cc(OCCCCO)cc2F)c(Cl)nc2ncnn12)C(F)(F)F [Example 21, 4-[4-(5-Chloro-7-{[(1S)-2,2,2-trifluoro-1-methylethyl]amino}[1,2,4]triazolo[1,5-a]pyrimidin-6-yl)-3,5-difluorophenoxy]butan-1-ol]",pIC50,COLO 205 cells,6.82
"C[C@H](Nc1c(-c2c(F)ccc(OCCN(C)C)c2F)c(Cl)nc2ncnn12)C(F)(F)F [Example 27, 5-Chloro-6-{3-[2-(dimethylamino)ethoxy]-2,6-difluorophenyl}-N-[(1S)-2,2,2-trifluoro-1-methylethyl][1,2,4]triazolo[1,5-a]pyrimidin-7-amine]",pIC50,COLO 205 cells,5.80
"C[C@H](Nc1c(-c2c(F)ccc(OCCCN(C)C)c2F)c(Cl)nc2ncnn12)C(F)(F)F [Example 28, 5-Chloro-6-{3-[3-(dimethylamino)propoxy]-2,6-difluorophenyl}-N-[(1S)-2,2,2-trifluoro-1-methylethyl][1,2,4]triazolo[1,5-a]pyrimidin-7-amine]",pIC50,COLO 205 cells,6.11
